PubChem BioAssay AID1996
≈ marks a conversion by molar mass, not a printed value.

settings: buffer; pH 7.4; 200.0 µM

Which solubility kinetic does the source give for `CCCS(=O)(=O)Nc1cccc(-c2nc3cccnc3s2)c1` here?
Its solubility kinetic is 2.4 µg/mL (≈ 7.2 µM).

Which solubility kinetic does the source give for `Cc1ccc(S(=O)(=O)N(CC2CO2)c2cccc([N+](=O)[O-])c2)cc1` (centres undefined) here?
Its solubility kinetic is 43.9 µg/mL (≈ 126 µM).

Which solubility kinetic does the source give for `COc1cccc(/C=C/C(=O)OCC(=O)NCCCc2ccccc2)c1OC` here?
Its solubility kinetic is 5.6 µg/mL (≈ 14.6 µM).

For `Cn1cccc1/C=C1/C(=O)NC(=O)N(Cc2ccc(F)cc2)C1=O`, which solubility kinetic is on record?
The solubility kinetic was 5.4 µg/mL (≈ 16.5 µM).

With `Oc1ccccc1Oc1ncc(Br)c(Cl)n1` as the compound, how does the solubility kinetic read?
The solubility kinetic was greater than 45.2 µg/mL.

Which solubility kinetic does the source give for `O=C(Cc1ccccc1)Oc1coc(CSc2ncccn2)cc1=O` here?
Its solubility kinetic is greater than 53.2 µg/mL.

For `CCOC(=O)C1CNc2cc(S(=O)(=O)CC)ccc2O1` (centres undefined), which solubility kinetic is on record?
Its solubility kinetic is greater than 44.9 µg/mL.

With `O=C(Nc1nccs1)C1CCN(S(=O)(=O)c2ccccc2)CC1` as the compound, how does the solubility kinetic read?
Its solubility kinetic is 43.7 µg/mL (≈ 124 µM).

For `CCCc1cc(=O)[nH]c(SCC(=O)NC2CCCCCCC2)n1`, which solubility kinetic is on record?
The solubility kinetic was 14.5 µg/mL (≈ 43 µM).

With `Cc1cc(C)c(OCC(=O)Nc2cc(C(=O)O)cc(C(=O)O)c2)cc1C` as the compound, how does the solubility kinetic read?
The solubility kinetic was greater than 53.6 µg/mL.

Which solubility kinetic does the source give for `COCCCNc1nc(N)c([N+](=O)[O-])c(NCc2ccccc2)n1` here?
Its solubility kinetic is 7.4 µg/mL (≈ 22.3 µM).

Which solubility kinetic does the source give for `COc1ccc(C2C(C#N)=C(N)Oc3c2oc(CO)cc3=O)cc1` (centres undefined) here?
The solubility kinetic was greater than 48.9 µg/mL.

With `N#Cc1c(-c2ccccc2Cl)c2c([nH]c1=O)-c1ccccc1OC2` as the compound, how does the solubility kinetic read?
Its solubility kinetic is 11.6 µg/mL (≈ 34.7 µM).

With `CC1(C)Cc2c(sc3c2c(N)nc(=S)n3Cc2ccccc2)CO1` as the compound, how does the solubility kinetic read?
Its solubility kinetic is 2.3 µg/mL (≈ 6.43 µM).

Which solubility kinetic does the source give for `Cc1ccc2c(c1)c(=O)c1c3n2CCN(CC#N)C3CC1` (centres undefined) here?
Its solubility kinetic is 37.7 µg/mL (≈ 135 µM).

For `Cc1cccc(C)c1N1C(=O)CC(N2CCN(S(=O)(=O)c3ccccc3F)CC2)C1=O` (centres undefined), which solubility kinetic is on record?
The solubility kinetic was 50.7 µg/mL (≈ 114 µM).

Which solubility kinetic does the source give for `O=[N+]([O-])c1ccc2c(c1)nc1n2CCSC1` here?
The solubility kinetic was greater than 35.3 µg/mL.

Which solubility kinetic does the source give for `Cc1nccn1-c1c([N+](=O)[O-])c(=O)n(C)c2ccccc12` here?
The solubility kinetic was greater than 42.6 µg/mL.

For `O=C(/C=C\c1ccc2c(c1)OCO2)CC1(O)C(=O)Nc2ccccc21` (centres undefined), which solubility kinetic is on record?
Its solubility kinetic is 24.6 µg/mL (≈ 72.9 µM).

With `CC(=O)NCC1COc2ccccc2O1` (centres undefined) as the compound, how does the solubility kinetic read?
Its solubility kinetic is greater than 31.1 µg/mL.

With `Cc1nn(C)c(Cl)c1CN1CCN(CCC(C)C)C(CCO)C1` (centres undefined) as the compound, how does the solubility kinetic read?
The solubility kinetic was greater than 51.4 µg/mL.

With `Cc1ccc(S(=O)(=O)NCCC(=O)NCCc2ccc(S(N)(=O)=O)cc2)cc1C` as the compound, how does the solubility kinetic read?
Its solubility kinetic is greater than 65.9 µg/mL.

With `c1csc(-c2nc3ccccc3s2)c1` as the compound, how does the solubility kinetic read?
Its solubility kinetic is 0.7 µg/mL (≈ 3.22 µM).

With `Cc1ccc(-c2nc(CN3CCN(c4cnccn4)CC3)c(C)o2)o1` as the compound, how does the solubility kinetic read?
Its solubility kinetic is 38.3 µg/mL (≈ 113 µM).

With `Cc1ccc(NC(=O)CNC(=O)c2cccc(Cl)c2)nc1` as the compound, how does the solubility kinetic read?
The solubility kinetic was 11.7 µg/mL (≈ 38.5 µM).

With `COc1ccc(C(C)=O)cc1CC(=O)NC1CCCCCC1` as the compound, how does the solubility kinetic read?
The solubility kinetic was 39.2 µg/mL (≈ 129 µM).

For `OC(CNC1Cc2ccccc2C1)COc1ccc(Cl)cc1` (centres undefined), which solubility kinetic is on record?
The solubility kinetic was greater than 47.7 µg/mL.

For `O=C(CSc1nnc(C2CC2)n1-c1ccccc1)NC1CCS(=O)(=O)C1` (centres undefined), which solubility kinetic is on record?
Its solubility kinetic is greater than 58.9 µg/mL.

With `CC(NC(=O)c1ccc(Br)o1)C1CCCO1` (centres undefined) as the compound, how does the solubility kinetic read?
The solubility kinetic was greater than 43.2 µg/mL.

Which solubility kinetic does the source give for `COC(=O)c1ccc(NC(=O)c2cccnc2)cc1` here?
The solubility kinetic was greater than 38.4 µg/mL.

For `c1ccc(-c2nc3cccnc3nc2-c2ccccc2)cc1`, which solubility kinetic is on record?
Its solubility kinetic is 33.1 µg/mL (≈ 117 µM).

With `COc1ccc(NC(=O)CCCc2ccccc2)cc1OC` as the compound, how does the solubility kinetic read?
Its solubility kinetic is 29.2 µg/mL (≈ 97.5 µM).

Which solubility kinetic does the source give for `CCOC(=O)C1CCN(C(=O)COC(=O)C23CC4CC(CC(C4)C2)C3)CC1` here?
Its solubility kinetic is 50.7 µg/mL (≈ 134 µM).

Which solubility kinetic does the source give for `CC(C)N(Cc1cc2ccccc2[nH]c1=O)C(=O)c1cccc([N+](=O)[O-])c1` here?
The solubility kinetic was 3.4 µg/mL (≈ 9.31 µM).

With `Cc1ccc(NC(=O)C(C)OC(=O)/C=C/c2ccccc2)cc1` (centres undefined) as the compound, how does the solubility kinetic read?
Its solubility kinetic is 4 µg/mL (≈ 12.9 µM).

For `CC(O)CCC(=O)NNC(=S)Nc1ccccc1` (centres undefined), which solubility kinetic is on record?
The solubility kinetic was greater than 40.1 µg/mL.

With `C=CCn1cc(/C=C2\SC(N3CCOCC3)=NC2=O)c2ccccc21` as the compound, how does the solubility kinetic read?
Its solubility kinetic is 9.5 µg/mL (≈ 26.9 µM).

With `CCC(CC)C(=O)Nc1nnc(SCC(=O)NC(C)(C)C)s1` as the compound, how does the solubility kinetic read?
Its solubility kinetic is greater than 51.7 µg/mL.

Which solubility kinetic does the source give for `COc1ccc(N2C(=O)C3CCCN3C2=S)cc1` (centres undefined) here?
Its solubility kinetic is greater than 39.3 µg/mL.

With `O=C(NCc1cccc(Cl)c1)c1ccncc1` as the compound, how does the solubility kinetic read?
The solubility kinetic was greater than 37 µg/mL.

For `O=C(CN1C(=O)CNC1=O)Nc1cc(Cl)cc(Cl)c1`, which solubility kinetic is on record?
Its solubility kinetic is greater than 45.3 µg/mL.

For `COc1ccc(NC(=O)c2ccc3c(c2)C(=O)N(Cc2ccncc2)C3=O)cc1S(N)(=O)=O`, which solubility kinetic is on record?
The solubility kinetic was 3.4 µg/mL (≈ 7.29 µM).

With `N=C1/C(=C/c2cccn2Cc2ccc(F)cc2)C(=O)N=C2SC=CN12` as the compound, how does the solubility kinetic read?
The solubility kinetic was less than 0.2 µg/mL.

With `Cc1ccc(OCCNC(=O)c2ccc3ccccc3n2)cc1` as the compound, how does the solubility kinetic read?
Its solubility kinetic is 5.4 µg/mL (≈ 17.6 µM).

Which solubility kinetic does the source give for `O=C(CCC(=O)N1CCCCCC1)NCc1ccc(F)cc1` here?
The solubility kinetic was greater than 46 µg/mL.

With `COc1ccc(C(C)(C)C)cc1NC(=O)COC(=O)CN1C(=O)NC2(CCCCC2C)C1=O` (centres undefined) as the compound, how does the solubility kinetic read?
The solubility kinetic was 38 µg/mL (≈ 82.7 µM).

For `CCOc1ccccc1NC(=O)COC(=O)c1cc(C)oc1C`, which solubility kinetic is on record?
The solubility kinetic was 2.2 µg/mL (≈ 6.93 µM).

Which solubility kinetic does the source give for `Cn1cccc1C(=O)OCC(=O)NCCc1ccc(S(N)(=O)=O)cc1` here?
Its solubility kinetic is greater than 54.8 µg/mL.

Which solubility kinetic does the source give for `COCCCNC(=O)c1cc2cc(Br)ccc2oc1=O` here?
Its solubility kinetic is 4.4 µg/mL (≈ 12.9 µM).

With `CN(C(=O)CSc1nnc(-c2ccc(Cl)cc2)n1C)C1CCS(=O)(=O)C1` (centres undefined) as the compound, how does the solubility kinetic read?
Its solubility kinetic is greater than 62.2 µg/mL.

With `COc1cc(C(=O)NC(=S)N(CCC#N)Cc2cccnc2)cc(OC)c1OC` as the compound, how does the solubility kinetic read?
The solubility kinetic was 59.3 µg/mL (≈ 143 µM).

With `COc1ccc2nc(NC(=O)c3c(C)noc3C)sc2c1` as the compound, how does the solubility kinetic read?
The solubility kinetic was greater than 45.5 µg/mL.

With `Cc1cccc(NS(=O)(=O)c2ccc(C(C)(C)C)cc2)n1` as the compound, how does the solubility kinetic read?
Its solubility kinetic is 42.7 µg/mL (≈ 140 µM).

With `O=C1/C(=C/c2cccs2)SC(=S)N1C1CCS(=O)(=O)C1` (centres undefined) as the compound, how does the solubility kinetic read?
The solubility kinetic was less than 0.7 µg/mL.

Which solubility kinetic does the source give for `Cc1nc(C)c(C(=O)OCC(=O)Nc2ccccc2)s1` here?
Its solubility kinetic is greater than 43.6 µg/mL.

With `Cc1cc(C(=O)N2CCN(c3ccccc3O)CC2)c(C)o1` as the compound, how does the solubility kinetic read?
The solubility kinetic was greater than 45.1 µg/mL.

For `C=CCn1c(SCC(=O)Nc2ccc(C(=O)O)cc2)nc2scc(-c3ccccc3)c2c1=O`, which solubility kinetic is on record?
The solubility kinetic was greater than 71.6 µg/mL.

For `O=C(COC(=O)C1=COCCO1)Nc1cc(Cl)c(Cl)cc1Cl`, which solubility kinetic is on record?
Its solubility kinetic is 5.3 µg/mL (≈ 14.5 µM).

For `COc1ccc(CCNC(=O)c2cccs2)cc1`, which solubility kinetic is on record?
Its solubility kinetic is 38.7 µg/mL (≈ 148 µM).
